{"source": "patent US20260007679A1", "about": "“METHODS OF TREATING CANCER USING 3-(4-((4-(MORPHOLINOMETHYL)BENZYL)OXY)-1-OXOISOINDOLIN-2-YL)PIPERIDINE-2,6-DIONE” (Celgene Corporation, priority 2012, published 2026)", "key": {"[1]": {"tested_on": "NK cell mediated ADCC against Rituximab coated lymphoma cells", "assay": "NK cell mediated ADCC assay (LDH release)", "assay_type": "cell-based, human", "method": "NK cells from healthy donors were isolated from buffy coat blood by negative selection using the RosetteSep NK cell enrichment cocktail (Stem Cell Technologies, Vancouver, BC) prior to Ficoll-Hypaque (Fisher Scientific Co LLC, PA) density gradient centrifugation following the manufacturers' instructions. CD56+NK cells were isolated to ˜85% purity, as determined by flow cytometry (BD Biosciences, CA).\nADCC Assay: Purified NK cells (5×104) were seeded in 96-well U-bottom plates in 100 μL of RPMI-1640 medium without phenol (Invitrogen)+2% human AB+serum (Gemini Bio Products, CA) and treated with 10 ng/mL rhIL-2 and rituximab (5 μg/mL) plus different concentrations of test compounds at 0.01 to 10 μM for 48 hours. Various lymphoma cell lines (GCB-DLBCL: WSU-DLCL2 and Farage; Follicular lymphoma: DoHH2; ABC-DLBCL: Riva; Burkitt's lymphoma [BL]: Raji) were treated with 5 µg/mL rituximab for 30 minutes at 37° C. Unbound rituximab was washed off, target cells (5×103/100 μL/well) were added to the pretreated effector cells (NK cells) at a 10:1 ratio, and the two were co-incubated for 4 hours at 37° C. Control conditions consisted of NK cells plus tumor cells treated with (1) medium alone, (2) rituximab only, or (3) IL-2 alone. Using an aliquot of supernatant (50 μL), NK cell cytotoxicity against tumor cells was analyzed using a standard lactate dehydrogenease (LDH) release assay to measure ADCC (CytoTox 96 Non-Radioactive Cytoxicity Assay, Promega, WI). Spontaneous release by target cells alone was <15% of the maximum release, as determined with target cells lysed in 1% Triton X-100. The experimental release was corrected by subtraction of the spontaneous release of effector cells at the corresponding dilution. The percentage of specific lysis was calculated according to the formula: Percentage specific lysis=100×(experimental−effector spontaneous−target spontaneous)/(target maximum−target spontaneous).\nNK cell-mediated specific lysis was calculated with the following formula: Percentage specific lysis=[(experimental release−spontaneous release)/(maximum release−spontaneous release)]×100. Results were analyzed using GraphPad Prism v5.0 software. Data are presented as the percentage cytotoxicity relative to DMSO-treated cells."}, "DoHH2 cell line": {"tested_on": "DoHH2 cell line", "assay": "Apoptosis analysis (annexin-V)", "assay_type": "cell-based", "method": "Apoptosis Analysis: Cells were treated with DMSO or an amount of a compound provided herein at various time points, then washed with annexin-V wash buffer (BD Biosciences). Cells were incubated with annexin-V binding protein and propidium iodide (BD Biosciences) for 10 minutes. Samples were analyzed using flow cytometry."}, "Rec-1 MCL cells": {"tested_on": "Rec-1 MCL cells", "assay": "3 day 3H-thymidine incorporation assay", "assay_type": "cell-based"}, "DoHH2 FL cells": {"tested_on": "DoHH2 FL cells", "assay": "3 day 3H-thymidine incorporation assay", "assay_type": "cell-based"}, "Farage DLBCL cells": {"tested_on": "Farage DLBCL cells", "assay": "3 day 3H-thymidine incorporation assay", "assay_type": "cell-based"}, "Karpas-1106P": {"tested_on": "Karpas-1106P", "assay": "5 day 3H thymidine incorporation", "assay_type": "cell-based", "details": "Homo sapiens, PMBL", "method": "(§1) Cells were treated with the tested compound for 5 days at 37° C.; proliferation of cells was determined using ^3H-thymidine incorporation method."}, "OCI-Ly10": {"tested_on": "OCI-Ly10", "assay": "5 day 3H thymidine incorporation", "assay_type": "cell-based", "details": "Homo sapiens, ABC subtype", "method": "as §1"}, "OCI-Ly19": {"tested_on": "OCI-Ly19", "assay": "5 day 3H thymidine incorporation", "assay_type": "cell-based", "details": "Homo sapiens, GCB subtype", "method": "as §1"}, "OCI-Ly3": {"tested_on": "OCI-Ly3", "assay": "5 day 3H thymidine incorporation", "assay_type": "cell-based", "details": "Homo sapiens, ABC subtype", "method": "as §1"}, "RIVA": {"tested_on": "RIVA", "assay": "5 day 3H thymidine incorporation", "assay_type": "cell-based", "details": "ABC subtype", "method": "as §1"}, "SUDHL4": {"tested_on": "SUDHL4", "assay": "5 day 3H thymidine incorporation", "assay_type": "cell-based", "details": "Homo sapiens, SU-DHL-4; GCB subtype", "method": "as §1"}, "TMD8": {"tested_on": "TMD8", "assay": "5 day 3H thymidine incorporation", "assay_type": "cell-based", "details": "Homo sapiens, ABC subtype", "method": "as §1"}, "U2932": {"tested_on": "U2932", "assay": "5 day 3H thymidine incorporation", "assay_type": "cell-based", "details": "Homo sapiens, ABC subtype", "method": "as §1"}, "WSU-DLCL2": {"tested_on": "WSU-DLCL2", "assay": "5 day 3H thymidine incorporation", "assay_type": "cell-based", "details": "Homo sapiens, WSUDLCL2; GCB subtype", "method": "as §1"}, "[2]": {"tested_on": "NCI-H929 cells (Control, Revlimid-sensitive, parental)", "assay": "Proliferation and viability by 7-AAD staining", "assay_type": "cell-based", "details": "Homo sapiens, NCI-H929, 120 h; Control / parental H929; 5 days; read-out: IC50, proliferation"}, "[3]": {"tested_on": "Revlimid-resistant NCI-H929 R3-10", "assay": "Proliferation and viability by 7-AAD staining", "assay_type": "cell-based", "details": "Homo sapiens, NCI-H929, 120 h; R3-10; 5 days; read-out: IC50, proliferation"}, "[4]": {"tested_on": "H929 DMSO-treated subclone", "assay": "Proliferation and viability by 7-AAD staining", "assay_type": "cell-based", "details": "Homo sapiens, NCI-H929, 120 h, 5 days, read-out: IC50 for inhibition of proliferation", "method": "(§2) CRBN ubiquitination was measured in HEK293T cells, which were transfected with an amino-terminal His-biotin-tagged CRBN construct, then preincubated with compounds for one hour followed by treatment with the MG132 proteasome inhibitor (to arrest degradation of ubiquitinated proteins). Cells were lysed and processed to measure CRBN ubiquitination by SDS-PAGE and immunoblot analysis using an anti-ubiquitin antibody. Cell proliferation studies were conducted in lenalidomide-sensitive and refractory multiple myeloma cells. […] T-cell costimulation was measured in purified primary human T cells stimulated using immobilized anti-CD3 antibody in cell culture for 2 days, and cytokine secretion was measured by ELISA."}, "[5]": {"tested_on": "lenalidomide resistant H929 subclones", "assay": "Proliferation and viability by 7-AAD staining", "assay_type": "cell-based", "method": "The Revlimid-resistant or -sensitive cell lines were treated with test compounds for 5 days, and then cell proliferation and viability were assessed by 7-aminoactinomycin D (7-AAD) staining.\nas §2"}, "H929 cells": {"tested_on": "H929 cells", "assay": "Cell cycle and protein expression in H929 cells", "assay_type": "cell-based"}, "human umbilical artery": {"tested_on": "human umbilical artery", "assay": "Human umbilical artery assay", "assay_type": "cell-based", "method": "Compounds I, I-R, and I-S were tested in various angiogenesis inhibition assays."}}}
{"smiles": "O=C1CCC(N2Cc3c(OCc4ccc(CN5CCOCC5)cc4)cccc3C2=O)C(=O)N1", "note": "(racemic) [Compound I, 3-(4-((4-(morpholinomethyl)benzyl)oxy)-1-oxoisoindolin-2-yl)piperidine-2,6-dione]", "values": [{"measurement": "concentration of peak ADCC activity", "setting": "[1]; Farage cells", "result": 1, "unit": "µM"}, {"measurement": "concentration of peak ADCC activity", "setting": "[1]; Raji cells", "result": 0.1, "unit": "µM"}, {"measurement": "rituximab-mediated ADCC, all cell lines", "setting": "[1]; WSU-DLCL2, Farage, DoHH2, Riva, Raji", "result": "more active than compounds I-S and I-R in all the cell lines tested except in Riva cells"}, {"measurement": "concentration of peak ADCC activity", "setting": "[1]; WSU-DLCL2 cells", "result": 0.1, "unit": "µM"}, {"measurement": "concentration of peak ADCC activity", "setting": "[1]; other cell lines (than WSU-DLCL2 and Raji)", "result": 1, "unit": "µM"}, {"measurement": "apoptosis induction and live cell number reduction in combination", "setting": "DoHH2 cell line; combined with Rituxan", "result": "additive manner"}, {"measurement": "apoptosis and cell numbers", "setting": "DoHH2 cell line; single agent", "result": "induced apoptosis"}]}
{"smiles": "O=C1CC[C@H](N2Cc3c(OCc4ccc(CN5CCOCC5)cc4)cccc3C2=O)C(=O)N1", "note": "[Compound I-S, (S)-3-(4-((4-(morpholinomethyl)benzyl)oxy)-1-oxoisoindolin-2-yl)piperidine-2,6-dione]", "values": [{"measurement": "IC50", "setting": "Rec-1 MCL cells; Homo sapiens, Rec1, 72 h, 3 day, read-out: anti-proliferative IC50", "result": 0.027, "unit": "µM"}, {"measurement": "combination effect, fractional product method", "setting": "Rec-1 MCL cells; combined with Rituxan", "result": "additive manner"}, {"measurement": "IC50", "setting": "DoHH2 FL cells; Homo sapiens, DOHH-2, 72 h, 3 day, read-out: anti-proliferative IC50", "result": 0.04, "unit": "µM"}, {"measurement": "combination effect, fractional product method", "setting": "DoHH2 FL cells; combined with Rituxan", "result": "synergistic manner"}, {"measurement": "IC50", "setting": "Farage DLBCL cells; Farage, 72 h, 3 day, read-out: anti-proliferative IC50", "result": 0.28, "unit": "µM"}, {"measurement": "combination effect, fractional product method", "setting": "Farage DLBCL cells; combined with Rituxan", "result": "additive to synergistic manner"}, {"measurement": "IC50", "setting": "Karpas-1106P", "result": 0.28, "unit": "µM"}, {"measurement": "IC50", "setting": "OCI-Ly10", "result": 0.0009, "unit": "µM"}, {"measurement": "IC50", "setting": "OCI-Ly19", "result": "> 10", "unit": "µM"}, {"measurement": "IC50", "setting": "OCI-Ly3", "result": "> 10", "unit": "µM"}, {"measurement": "IC50", "setting": "RIVA", "result": 2.3, "unit": "µM"}, {"measurement": "IC50", "setting": "SUDHL4", "result": 1.6, "unit": "µM"}, {"measurement": "IC50", "setting": "TMD8", "result": 0.059, "unit": "µM"}, {"measurement": "IC50", "setting": "U2932", "result": 0.005, "unit": "µM"}, {"measurement": "IC50", "setting": "WSU-DLCL2", "result": 0.24, "unit": "µM"}, {"measurement": "IC50", "setting": "[2]", "result": 0.01, "unit": "µM"}, {"measurement": "IC50", "setting": "[3]", "result": 0.51, "unit": "µM"}, {"measurement": "IC50", "setting": "[4]", "result": 0.04, "unit": "µM"}, {"measurement": "activity against Revlimid-resistant cell lines", "setting": "[5]", "result": "active"}, {"measurement": "IC50", "setting": "[5]; Homo sapiens, NCI-H929, 120 h, read-out: IC50 for inhibition of proliferation", "result": "0.51 to 1.58", "unit": "µM"}, {"measurement": "expression of cyclin-dependent kinase inhibitor p27", "setting": "H929 cells; 48 hours", "result": "increased"}, {"measurement": "expression of retinoblastoma protein (pRB)", "setting": "H929 cells; 48 hours", "result": "decreased"}, {"measurement": "expression of survivin", "setting": "H929 cells; 48 hours", "result": "decreased"}, {"measurement": "decrease in cell cycle (S-phase)", "setting": "H929 cells; after 24 hours of treatment", "result": 50, "unit": "%"}, {"measurement": "IC50", "setting": "human umbilical artery", "result": 0.052, "unit": "µM"}]}
